The values below come from patent publication US9034891B2, “Bicyclic heterocyclic spiro compounds” (ISRAEL INSTITUTE FOR BIOLOGICAL RESEARCH, priority 2009, dated 2015).

The structures appear in SMILES notation. A value given as a limit tells only on which side of the number the result lay.

In test [1] the target is T1, M1 mAChR (Homo sapiens, UniProt P11229).
T1 sequence (P11229 1-460): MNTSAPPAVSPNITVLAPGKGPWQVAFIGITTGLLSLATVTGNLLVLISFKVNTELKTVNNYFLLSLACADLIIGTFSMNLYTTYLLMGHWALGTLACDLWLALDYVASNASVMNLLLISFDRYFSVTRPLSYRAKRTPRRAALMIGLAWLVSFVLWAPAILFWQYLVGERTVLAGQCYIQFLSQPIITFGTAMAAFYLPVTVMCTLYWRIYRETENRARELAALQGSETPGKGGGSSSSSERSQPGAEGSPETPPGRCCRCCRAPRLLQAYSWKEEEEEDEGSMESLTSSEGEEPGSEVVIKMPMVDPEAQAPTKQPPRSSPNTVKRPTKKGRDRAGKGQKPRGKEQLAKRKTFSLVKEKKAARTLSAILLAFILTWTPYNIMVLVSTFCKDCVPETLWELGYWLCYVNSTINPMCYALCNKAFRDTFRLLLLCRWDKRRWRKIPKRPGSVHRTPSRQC
In words: αAPPs secretion in CHO cells double transfected with human APP695 and human M1 mAChR. Type of test: cell-based. Conditions: doubly-transfected CHO cells; AF710B at 0.01 μM, AF710 at 0.1 μM, AF710A at 1 μM. As to the method: α-APPs Secretion studies following incubation with the tested compounds were performed as described in Haring, et al. J. Neurochem., 1998, 71:2094-103. […] A day later, cells were washed twice with serum free media, and treated with the test compound at various concentrations ranging from 0.1 nM to 100 μM. […] After 1 hour the conditioned medium was collected to cold Eppendorf tubes, which included a protease inhibitor cocktail (0.1 mM phenylmethylsulphonyl fluoride (PMSF); 5 μg/ml leupeptin; 5 μg/ml pepstatin and 5 units/ml aprotinin) for determining αAPPs release. The protein content of each sample was concentrated using Centricon tubes (Amicon, Beverly, Mass.). […] CHO cells double transfected with human APP695 and M1 mAChR APPs bands were probed using anti-amyloid beta protein (1:1000, monoclonal 6E10 antibody, MAB1560, Chemicon) and peroxidase-linked rabbit anti mouse IgG (1:5,000; Jackson Immuno Research, PA). PC12 cells stably transfected with M1 mAChR APPs bands were probed using the anti-Alzheimer precursor protein A4 (1:4,000; monoclonal 22C11 antibody, Boehringer Mannheim) and the peroxidase-linked rabbit anti mouse IgG (1:20,000; Jackson Immuno Research, PA). Following extensive washout, the membranes were treated with Western Lightning Chemiluminescence Reagent Plus (PerkinElmer Life Sciences, MA) followed by exposure to SuperRX film (Fuji Medical X-ray film, Tokyo, Japan). Quantitative determination of the total APPs bands was performed by Scion Image program (NIH, Bethesda, USA). Samples of control and CCh were assayed in parallel and thus enabled compilation of data from separate experiments.

Test [2] concerns the target T1, M1 mAChR. Briefly: Intracellular Ca2+ mobilization (Fluo-4 NW) in cells stably transfected with M1 mAChR. Type of test: cell-based. Also on record: expressed in transfected cells. The conditions noted are these: for Kd: read-out: Effects on M1 mAChR: antagonist, Kd; for M1 agonist at 100 μM vs. carbachol (full muscarinic agonist, 100%): mobilization of intracellular Ca ions; for activity at 100 µM: remaining carbachol-induced effect, read-out: Antagonist at 100 μM on M1 mAChR inhibiting carbachol-induced effects from 100% to. From the text: On the day of experiment, cells were fully confluent.
To evaluate selectivity for a subtype of mAChR, in particular the M1 mAChR vs. M3 and MS mAChR, the assays were calibrated using ligands that have a combined activity, e.g. M1 agonistic and M3 antagonistic or M1 agonistic and MS antagonistic profiles, respectively. This can eliminate effects due to different receptor reserves in cell-based assays.

Another test deals with rats. Briefly: Passive avoidance, MK-801-induced impairment in rats. Conditions: sc, retention 24 h later. Type of test: in vivo, rat. From the text: (§1) Trihexyphenidyl is a selective M1 muscarinic antagonist that crosses the blood brain barrier and induces memory and learning impairments (Bymaster et al., J Pharmacol Exp. Ther. 267: 16-24, 1993; Roldan et al., Neurosci. Lett. 230: 93-96, 1997; Kimura et al., Brain Res. 834: 6-12, 1999). […] Naive Wistar rats were used in the experiments below. The passive avoidance (PA) task consists of a training (acquisition) phase and a retention phase. In the training procedure each rat was individually placed in the small illuminated compartment and after 60 s. of familiarization/adaptation, the door to the large compartment was opened and the latency to enter was measured (Initial Latency) Immediately following entry into the dark compartment, the door was closed and inescapable foot shock (0.6 mA for 3 s) was delivered through the grid floor. […] After the acquisition trial the rat was returned to its home cage. Retention of the passive avoidance task was measured 24 h later, by again placing the rat in the light compartment and after a 60 s adaptation interval, the door was opened and the latency to re-enter the dark compartment was measured. […] Two separate experiments were conducted. […] In both experiments the rats were divided into 2 groups. One main group was treated with trihexyphenidyl (5 mg/kg, s.c) and the second main group was treated with vehicle (DDW-1 ml/kg, s.c.), 30 min before the shock.
MK-801 is an NMDA antagonist that induces cognitive behavioral impairments in rodents. […] In the first experiment (dose-finding study of MK-801) rats were divided into 4 groups. Three groups (N=27) were treated with MK-801 (50, 80 or 100 μg/kg, s.c) and the fourth group (N=10) was treated with vehicle (saline-1 ml/kg, s.c.), 30 min before the shock. […] One group (N=80) was treated with MK-801 (80 μg/kg, s.c) and the second group (N=59) was treated with the vehicle (saline-1 ml/kg, s.c.).

Another test has as its system Wistar rats. Briefly: Passive avoidance, trihexyphenidyl-induced memory impairment in rats. Type of test: in vivo, rat. Conditions: NE-100 1 mg/kg alone.
Excerpt: as §1
In a further extension of these studies, retention of the passive avoidance task was measured 72 h later, by again placing the rat in the light compartment and after a 60 s adaptation interval, the door was opened and the latency to re-enter the dark compartment was measured. A cutoff point of 600 s was used for retention latency. […] Rats were divided into 2 groups. One group (N=30) was treated with trihexyphenidyl (5 mg/kg, s.c) and the second group (N=29) was treated with vehicle (DDW-1 ml/kg, s.c.), 30 min before the shock.

For a further test, the system named is PC12M1 cells. Briefly: Mitochondrial apoptosis pathway, Bax and Bcl-2 immunoreactivity in PC12M1 cells.

Experimental for PC12M1 cells: These cells were partially differentiated (2-3 days), as observed under microscope. […] The pellet (rich mitochondrial fraction) was re-suspended with 200 μl Ripa buffer and lysed by rapid passage through a syringe needle (23G) for five to six times. The lysate was then used for further evaluation.
Bands were probed using the Rabbit Bax antibody (1:1000, Cell signaling, Cat. No. 2772) and Rabbit Bcl-2 antibody (1:1000, Cell signaling, Cat. No. 2870) followed by anti rabbit IgG (H&L) HRP (1:5,000, Jackson Immuno Research, 111-035-144).

Turning to `C[C@H]1SC2(CCN(C)CC2)CN1C(=O)CCc1c[nH]c2ccccc12` (single isomer, unassigned) [AF710A], the “maximal αAPPs secretion in comparison to untreated control cells” value on M1 mAChR [1] was found to be 125%. Also, on M1 mAChR [2], the Kd stood at 31 µM.
As for `CC1OC2(CCN(C)CC2)CN1C(=O)CCc1c[nH]c2ccccc12` (single isomer, unassigned) [AF711A], on M1 mAChR [2], the “M1 agonist at 100 μM vs. carbachol (full muscarinic agonist, 100%)” value (“M1 agonist … (full muscarinic agonist, 100%)” for short) is listed as 45%.
As for `CC1OC2(CCN(C)CC2)CN1C(=O)CCc1c[nH]c2ccccc12` (single isomer, unassigned) [AF711B], on M1 mAChR [2], the Kd was determined as 42 µM.
For the compound `CC1OC2(CCN(C)CC2)CC1NC(=O)CCc1c[nH]c2ccccc12` (single isomer, unassigned) [AF730 II], the “M1 agonist … (full muscarinic agonist, 100%)” value on M1 mAChR [2] was determined as 36%.
For the compound `CC1OC2(CCN(C)CC2)CC1NC(=O)CCc1c[nH]c2ccccc12` (single isomer, unassigned) [AF730, N-(2,8-dimethyl-1-oxa-8-aza-spiro[4.5]dec-3-yl)-3-(1H-indol-3-yl)-propionamide], the “M1 agonist … (full muscarinic agonist, 100%)” value at M1 mAChR [2] is recorded as 40%.
As for `CC1CN(C(=O)CCc2c[nH]c3ccccc23)C2(CCN(C)CC2)O1` (centres unmarked) [AF706, 1-(2,8-dimethyl-1-oxa-4,8-diazaspiro[4.5]dec-4-yl)-3-(1H-indol-3-yl)-propan-1-one], the Kd at M1 mAChR [2] is 39.7 µM.
Still for that read-out and setting: the result for `CCCC(CCC)C(=O)N1CC2(CCN(C)CC2)OC1C` (centres unmarked) [AF712, 1-(2,8-dimethyl-1-oxa-3,8-diaza-spiro[4.5]dec-3-yl)-2-propyl-pentan-1-one] reads 22.6 µM; that for `CCCC(CCC)C(=O)N1CC(C)OC12CCN(C)CC2` (centres unmarked) [AF713, 1-(2,8-dimethyl-1-oxa-4,8-diaza-spiro[4.5]dec-4-yl)-2-propyl-pentan-1-one], 113 µM.
As for `CC1CN(S(=O)(=O)c2ccc(F)cc2)C2(CCN(C)CC2)O1` (centres unmarked) [AF714, 4-(4-fluoro-benzenesulfonyl)-2,8-dimethyl-1-oxa-4,8-diaza-spiro[4.5]-decane], at M1 mAChR [2], the dissociation constant (Kd) came to 9.7 µM.
`CC1OC2(CCN(C)CC2)CN1S(=O)(=O)c1ccc(F)cc1` (centres unmarked) [AF715, 3-(4-fluorobenzenesulfonyl)-2,8-dimethyl-1-oxa-3,8-diazaspiro[4.5]-decane]: the Kd at M1 mAChR [2] is 2.5 µM.
On the same count and under the same terms, to `CC1SC2(CCN(C)CC2)CN1S(=O)(=O)c1ccc(F)cc1` (centres unmarked) [AF716, 3-(4-fluorobenzenesulfonyl)-2,8-dimethyl-1-thia-3,8-diazaspiro[4.5]-decane] belongs 7.7 µM.
Consider `CCCC(CCC)C(=O)N1CC2(CCN(C)CC2)SC1C` (centres unmarked) [AF717, 1-(2,8-dimethyl-1-thia-3,8-diazaspiro[4.5]dec-3-yl)-2-propylpentan-1-one], for which the activity at 100 µM on M1 mAChR [2] was less than 25%.
For the compound `CC1OC2(CCN(C)CC2)C2C1N2C(=O)CCc1c[nH]c2ccccc12` (centres unmarked) [AF718C, 1′,4-dimethyl-6-(3-indolpropionyl)-spiro-(3-oxa-6-aza-bicyclo[3.1.0]-hexane-2,4′-piperidine)], the “M1 agonist … (full muscarinic agonist, 100%)” value on M1 mAChR [2] is 43%.
As for `CC1OC2(CCN(C)CC2)C2C1N2S(=O)(=O)c1ccc(F)cc1` (centres unmarked) [AF721, 1′,4-dimethyl-6-[3-(4-fluorobenzenesulfonyl)]-spiro-(3-oxa-6-aza-bicyclo[3.1.0]hexane-2,4′-piperidine)], on M1 mAChR [2], the “M1 agonist … (full muscarinic agonist, 100%)” value is recorded as 13%.
Consider `CC1SC2(CCN(C)CC2)CN1C(=O)c1cc(C(C)(C)C)c(O)c(C(C)(C)C)c1` (centres unmarked) [AF723, (3,5-di-tert-butyl-4-hydroxy-phenyl)-(2,8-dimethyl-1-thia-3,8-diaza-spiro[4.5]dec-3-yl)-methanone], for which, at M1 mAChR [2], the activity at 100 µM was less than 50%.
For `CCC(=O)N1CC2(CCN(C)CC2)SC1C` (centres unmarked) [AF724, 1-(2,8-dimethyl-1-thia-3,8-diaza-spiro[4.5]dec-3-yl)-propan-1-one], on M1 mAChR [2], the activity at 100 µM was less than 50%.
Still for that read-out and setting: to `CC1SC2(CCN(C)CC2)CN1C(=O)CCCc1c[nH]c2ccccc12` (centres unmarked) [AF725] belongs less than 50%.
As for `CC1SC2(CCN(C)CC2)CN1C(=O)Cc1c[nH]c2ccccc12` (centres unmarked) [AF726], at M1 mAChR [2], the Kd is 84.7 µM.
The same measure, in the same setting: the result for `CC1SC2(CCN(C)CC2)CN1C(=O)/C=C/c1c[nH]c2ccccc12` (centres unmarked) [AF727, (E)-1-(2,8-dimethyl-1-thia-3,8-diaza-spiro[4.5]dec-3-yl)-3-(1H-indol-3-yl)-propenone] reads 8.7 µM.
`CC1OC2(CCN(C)CC2)C/C1=N\OC(=O)CCc1c[nH]c2ccccc12` (centres unmarked) [AF733, (3E)-2,8-dimethyl-1-oxa-8-azaspiro[4.5]decan-3-one-O—[3-(1H-indol-3-yl)propanoyl]oxime]: on M1 mAChR [2], the “M1 agonist … (full muscarinic agonist, 100%)” value stood at 90%.
As for `C[C@]12N[C@H](Cc3ccccc31)c1ccccc12` [MK-801, reference compound], the “retention performance, dose-finding” value in the test with rats (50 μg/kg) is listed as “ineffective”; in the test with rats (80 and 100 μg/kg), “impaired retention performance”.
Regarding `CCCN(CCC)CCc1ccc(OC)c(OCCc2ccccc2)c1` [NE-100, reference compound], in the test with Wistar rats, the “inducing deficits in the PA task, alone” value is “not significantly effective”. Besides, in the test on PC12M1 cells (NGF deprivation), the “effect of sigma-1 antagonist on AF710B-mediated decrease of Bax elevation” value is reported as “blocked these AF710B-mediated effects”.
In the case of `C[N+](C)(C)CCOC(N)=O` [carbachol, reference compound], the “Aβ 25-35 induced neurotoxicity expressed as Bax/Bcl2” value in the test on PC12M1 cells (PC12M1 cells, 1 μM) was 29%±11.
